Results taken from patent US20130345215A1, “PYRAZOLOPYRIMIDONE AND PYRAZOLOPYRIDONE INHIBITORS OF TANKYRASE” (Genentech, Inc., priority 2012, published 2013).
pIC50: −log10 of the molar value.

test system: Wnt stimulated TCF transcriptional activity, HEK293-TS 112 TCF reporter cell line; test: Tankyrase 1 Assay (Example 119): Wnt3A-stimulated TOPbrite TCF luciferase reporter; format: cell-based; details: Compounds I-59 to I-144, procedure in Example 119 (0.5 ug/mL Wnt3A, 16 hours); read-out: TNKS1 (IC50)
Procedure: Inhibition of the Wnt stimulated TCF transcriptional activity by tankyrase inhibitors was determined utilizing a HEK293-TS 112 TCF reporter cell line. A Wnt-responsive luciferase reporter named TOPbrite was constructed by cloning the enhancer element of Super8xTOPFlash containing eight TCF/LEF binding sites into the pGL4.28 vector (Promega) upstream of the minimal promoter element, and selecting for hygromycin B resistance (50 μg/ml). Cells were seeded into 384-well plates in the presence of 0.5 ug/mL of Wnt3A at a density of 20,000 cells per well in 25 ul of F:12 DMEM media supplemented with 10% FBS and 2 mM Glutamax. Cells seeded without the addition of Wnt3A were used as background signal. Compounds of various concentrations were added to cells and incubated at 37 degrees with 5% CO2 for 16 hours. The assay was terminated with the addition of Promega Dual Glo kit per manufacturer's instructions. A ratio of TOPbrite Firefly Luciferase and SV40 Renillla Luciferase was calculated and the background from the neutral wells was subtracted yielding the final normalized measurement of TCF transcriptional activity. Compound IC50s were determined by four-parameter curve fitting using GeneData software.

How did the pIC50 turn out when Cn1cc(CN2CCN(c3nc4c(cnn4C)c(=O)[nH]3)CC2)cn1 [Compound I-134, 1-methyl-6-[4-[(1-methylpyrazol-4-yl)methyl]piperazin-1-yl]-5H-pyrazolo[3 4-d]pyrimidin-4-one] was run?
The pIC50 was 6.47.

With Cn1ncc2c(=O)[nH]c(N3CCC(c4ccccc4)CC3)nc21 [Compound I-101, 1-methyl-6-(4-phenyl-1-piperidyl)-5H-pyrazolo[3 4-d]pyrimidin-4-one] as the compound, how does the pIC50 read?
The pIC50 was 7.34.

How did the pIC50 turn out when COCCOc1cc(F)c(N2CCN(c3nc4c(cnn4C4CCS(=O)(=O)CC4)c(=O)[nH]3)CC2)c(F)c1 [Compound I-128, 6-[4-[2 6-difluoro-4-(2-methoxyethoxy)phenyl]piperazin-1-yl]-1-(1 1-dioxothian-4-yl)-5H-pyrazolo[3 4-d]pyrimidin-4-one] was run?
Its pIC50 is 6.57.

Cn1ncc2c(=O)[nH]c(-c3ccc(S(=O)(=O)CC4CCCCC4)cc3)nc21 [Compound I-108, 6-[4-(cyclohexylmethylsulfonyl)phenyl]-1-methyl-5H-pyrazolo[3 4-d]pyrimidin-4-one] was tested. Which pIC50 did it give?
Its pIC50 is 7.16.

“6-[4-(3-fluorophenyl)-1- piperidyl]-1-methyl-5H- pyrazolo[3 4-d]pyrimidin- 4-one [Compound I-84]” was tested. Which pIC50 did it give?
Its pIC50 is 7.77.

With Cn1ncc2c(=O)[nH]c(N3CCC(Cc4ccncc4)C3)nc21 (stereo not shown) [Compound I-138, 1-methyl-6-[3-(4-pyridylmethyl)pyrrolidin-1-yl]-5H-pyrazolo[3 4-d]pyrimidin-4-one] as the compound, how does the pIC50 read?
Its pIC50 is 6.27.

With Cn1ncc2c(=O)[nH]c(N3CCN([C@H]4CC[C@H](O)CC4)CC3)nc21 [Compound I-120, 6-[4-(4-hydroxycyclohexyl)piperazin-1-yl]-1-methyl-5H-pyrazolo[3 4-d]pyrimidin-4-one] as the compound, how does the pIC50 read?
Its pIC50 is 6.82.

With Cn1ncc2c(=O)[nH]c(N3CCC(Cc4cccnc4)C3)nc21 (stereo not shown) [Compound I-137, 1-methyl-6-[3-(3-pyridylmethyl)pyrrolidin-1-yl]-5H-pyrazolo[3 4-d]pyrimidin-4-one] as the compound, how does the pIC50 read?
Its pIC50 is 6.31.

With Cn1ncc2c(=O)[nH]c(N3CCC(c4nc(-c5cnccn5)no4)CC3)nc21 [Compound I-106, 1-methyl-6-[4-(3-pyrazin-2-yl-1 2 4-oxadiazol-5-yl)-1-piperidyl]-5H-pyrazolo[3 4-d]pyrimidin-4-one] as the compound, how does the pIC50 read?
Its pIC50 is 7.19.

With CC(O)c1cc(F)c(N2CCN(c3nc4c(cnn4C)c(=O)[nH]3)CC2)c(F)c1 (stereo not shown) [Compound I-69, 6-[4-[2 6-difluoro-4-(1-hydroxyethyl)phenyl]piperazin-1-yl]-1-methyl-5H-pyrazolo[3 4-d]pyrimidin-4-one] as the compound, how does the pIC50 read?
Its pIC50 is 8.11.

With Cc1c[nH]nc1C1CCN(c2nc3c(cnn3C)c(=O)[nH]2)CC1 [Compound I-115, 1-methyl-6-[4-(4-methyl-1H-pyrazol-3-yl)-1-piperidyl]-5H-pyrazolo[3 4-d]pyrimidin-4-one] as the compound, how does the pIC50 read?
The pIC50 was 6.97.

With COCCOc1cc(F)c(N2CCN(c3nc4c(cnn4CC(O)CO)c(=O)[nH]3)CC2)c(F)c1 (stereo not shown) [Compound I-113, 6-[4-[2 6-difluoro-4-(2-methoxyethoxy)phenyl]piperazin-1-yl]-1-(2 3-dihydroxypropyl)-5H-pyrazolo[3 4-d]pyrimidin-4-one] as the compound, how does the pIC50 read?
The pIC50 was 7.05.

With CCn1ccc(C2(C)CCN(c3nc4c(cnn4C)c(=O)[nH]3)CC2)n1 [Compound I-92, 6-[4-(1-ethylpyrazol-3-yl)-4-methyl-1-piperidyl]-1-methyl-5H-pyrazolo[3 4-d]pyrimidin-4-one] as the compound, how does the pIC50 read?
Its pIC50 is 7.61.

CC(O)Cn1ccc(C2(C)CCN(c3nc4c(cnn4C)c(=O)[nH]3)CC2)n1 (stereo not shown) [Compound I-99, 6-[4-[1-(2-hydroxypropyl)pyrazol-3-yl]-4-methyl-1-piperidyl]-1-methyl-5H-pyrazolo[3 4-d]pyrimidin-4-one] was tested. Which pIC50 did it give?
Its pIC50 is 7.38.

With Cn1ncc2c(=O)[nH]c(N3CCC(C)(c4ccn(CC(C)(C)O)n4)CC3)nc21 [Compound I-127, 6-[4-[1-(2-hydroxy-2-methyl-propyl)pyrazol-3-yl)-4-methyl-1-piperidyl]-1-methyl-5H-pyrazolo[3 4-d]pyrimidin-4-one] as the compound, how does the pIC50 read?
Its pIC50 is 6.65.

Cn1ncc2c(=O)[nH]c(N3CCN(c4c(F)cc(OC5CC[S+]([O-])CC5)cc4F)CC3)nc21 (stereo not shown) [Compound I-87, 6-[4-[2 6-difluoro-4-(1-oxothian-4-yl)oxy-phenyl]piperazin-1-yl]-1-methyl-5H-pyrazolo[3 4-d]pyrimidin-4-one] was tested. Which pIC50 did it give?
Its pIC50 is 7.73.

How did the pIC50 turn out when Cn1ncc2c(=O)[nH]c(N3CCC(C)(c4ccn(CCO)n4)CC3)nc21 [Compound I-89, 6-[4-[1-(2-hydroxyethyl)pyrazol-3-yl]-4-methyl-1-piperidyl]-1-methyl-5H-pyrazolo[3 4-d]pyrimidin-4-one] was run?
Its pIC50 is 7.66.

Cn1ncc2c(=O)[nH]c(N3CCN(CC4CCOCC4)CC3)nc21 [Compound I-116, 1-methyl-6-[4-(tetrahydropyran-4-ylmethyl)piperazin-1-yl]-5H-pyrazolo[3 4-d]pyrimidin-4-one] was tested. Which pIC50 did it give?
The pIC50 was 6.95.

With Cn1ncc2c(=O)[nH]c(N3CCN(c4c(F)cc(CO)cc4F)CC3)nc21 [Compound I-79, 6-[4-[2 6-difluoro-4-(hydroxymethyl)phenyl]piperazin-1-yl]-1-methyl-5H-pyrazolo[3 4-d]pyrimidin-4-one] as the compound, how does the pIC50 read?
The pIC50 was 7.88.

How did the pIC50 turn out when Cn1ncc2c(=O)[nH]c(N3CCC(n4cccn4)CC3)nc21 [Compound I-112, 1-methyl-6-(4-pyrazol-1-yl-1-piperidyl)-5H-pyrazolo[3 4-d]pyrimidin-4-one] was run?
Its pIC50 is 7.05.

With Cn1ncc2c(=O)[nH]c(N3CCN(C4CC5CCC4C5)CC3)nc21 (stereo not shown) [Compound I-103, 1-methyl-6-(4-norbornan-2-ylpiperazin-1-yl)-5H-pyrazolo[3 4-d]pyrimidin-4-one] as the compound, how does the pIC50 read?
Its pIC50 is 7.30.

How did the pIC50 turn out when CC(C)[C@H](N)C(=O)OCCOc1cc(F)c(N2CCN(c3nc4c(cnn4C)c(=O)[nH]3)CC2)c(F)c1 [Compound I-61, 2-[3 5-difluoro-4-[4-(1-methyl-4-oxo-5H-pyrazolo[3 4-d]pyrimidin-6-yl)piperazin-1-yl]phenoxy]ethyl (2S)-2-amino-3-methyl-butanoate] was run?
The pIC50 was 8.38.

Cn1nccc1CN1CCN(c2nc3c(cnn3C)c(=O)[nH]2)CC1 [Compound I-132, 1-methyl-6-[4-((2-methylpyrazol-3-yl)methyl]piperazin-1-yl]-5H-pyrazolo[3 4-d]pyrimidin-4-one] was tested. Which pIC50 did it give?
Its pIC50 is 6.48.

How did the pIC50 turn out when Cn1ncc2c(=O)[nH]c(N3CCN(c4c(F)cc(OCCN5CCOCC5)cc4F)CC3)nc21 [Compound I-74, 6-[4-[2 6-difluoro-4-(2-morpholinoethoxy)phenyl]piperazin-1-yl]-1-methyl-5H-pyrazolo[3 4-d]pyrimidin-4-one] was run?
The pIC50 was 8.05.

With C[C@H](N)C(=O)OCCOc1cc(F)c(N2CCN(c3nc4c(cnn4C)c(=O)[nH]3)CC2)c(F)c1 [Compound I-59, 2-[3 5-difluoro-4-[4-(1-methyl-4-oxo-5H-pyrazolo[3 4-d]pyrimidin-6-yl)piperazin-1-yl]phenoxy]ethyl (2S)-2-aminopropanoate] as the compound, how does the pIC50 read?
Its pIC50 is 8.43.

COCCOc1cc(F)c(N2CCN(c3nc4c(cnn4CC(C)(C)O)c(=O)[nH]3)CC2)c(F)c1 [Compound I-143, 6-[4-[2 6-difluoro-4-(2-methoxyethoxy)phenyl]piperazin-1-yl]-1-(2-hydroxy-2-methyl-propyl)-5H-pyrazolo[3 4-d]pyrimidin-4-one] was tested. Which pIC50 did it give?
The pIC50 was 6.10.

With Cn1ccc(C2(C)CCN(c3nc4c(cnn4C)c(=O)[nH]3)CC2)n1 [Compound I-90, 1-methyl-6-[4-methyl-4-(1-methylpyrazol-3-yl)-1-piperidyl]-5H-pyrazolo[3 4-d]pyrimidin-4-one] as the compound, how does the pIC50 read?
The pIC50 was 7.63.

How did the pIC50 turn out when Cn1ncc2c(=O)[nH]c(N3CCN([C@H]4CC[C@@H](O)CC4)CC3)nc21 [Compound I-124, 6-[4-(4-hydroxycyclohexyl)piperazin-1-yl]-1-methyl-5H-pyrazolo[3 4-d]pyrimidin-4-one] was run?
Its pIC50 is 6.77.

Cn1ncc2c(=O)[nH]c(N3CCN(c4c(F)cc(CN5CCOCC5)cc4F)CC3)nc21 [Compound I-67, 6-[4-[2 6-difluoro-4-(morpholinomethyl)phenyl]piperazin-1-yl]-1-methyl-5H-pyrazolo[3 4-d]pyrimidin-4-one] was tested. Which pIC50 did it give?
The pIC50 was 8.16.

Cn1ncc2c(=O)[nH]c(N3CCC(Cc4ncccn4)C3)nc21 (stereo not shown) [Compound I-133, 1-methyl-6-[3-(pyrimidin-2-ylmethyl)pyrrolidin-1-yl]-5H-pyrazolo[3 4-d]pyrimidin-4-one] was tested. Which pIC50 did it give?
The pIC50 was 6.47.

How did the pIC50 turn out when Cn1ncc2c(=O)[nH]c(N3CCN(c4c(F)cc(OCC5C[S+]([O-])C5)cc4F)CC3)nc21 (stereo not shown) [Compound I-72, 6-[4-[2 6-difluoro-4-[(1-oxothietan-3-yl)methoxy]phenyl]piperazin-1-yl]-1-methyl-5H-pyrazolo[3 4-d]pyrimidin-4-one] was run?
The pIC50 was 8.07.

With COCCOc1cc(F)c(N2CCN(c3nc4c(cnn4CCO)c(=O)[nH]3)CC2)c(F)c1 [Compound I-94, 6-[4-[2 6-difluoro-4-(2-methoxyethoxy)phenyl]piperazin-1-yl]-1-(2-hydroxyethyl)-5H-pyrazolo[3 4-d]pyrimidin-4-one] as the compound, how does the pIC50 read?
The pIC50 was 6.58.

With COCCO[C@H]1CC[C@H](N2CCN(c3nc4c(cnn4C)c(=O)[nH]3)CC2)CC1 [Compound I-121, 6-[4-[4-(2-methoxyethoxy)cyclohexyl]piperazin-1-yl]-1-methyl-5H-pyrazolo[3 4-d]pyrimidin-4-one] as the compound, how does the pIC50 read?
Its pIC50 is 6.80.

CN1CCN(Cc2cc(F)c(N3CCN(c4nc5c(cnn5C)c(=O)[nH]4)CC3)c(F)c2)CC1 [Compound I-60, 6-[4-[2 6-difluoro-4-[(4-methylpiperazin-1-yl)methyl]phenyl]piperazin-1-yl]-1-methyl-5H-pyrazolo[3 4-d]pyrimidin-4-one] was tested. Which pIC50 did it give?
The pIC50 was 8.42.
